Data set [1] relates to human glioblastoma cells (TB 10). Put plainly: Cell survival after thermal neutron irradiation of Gd-DTPA-exposed cultures. The format is cell-based. The note with it: for cell death after neutron irradiation: FIG. 5. How it is done:
5) For neutron bombardment, two series of cell cultures (each one in duplicate) from different passages were plated in plastic “NUNC”-brand flasks (Nalge Nunc International, Rochester, N.Y.) (NUNCLON, 25 cm^2culture area) at a density of 1×10^4 cells/cm^2 and exposed to no Gd-DTPA, 1 mg/ml, 5 mg/ml, or 10 mg/ml GdDTPA, for 72 hours, beginning 24 hours after plating. At the end of the exposure period, the growth media were removed and the flasks filled with Puck's modified saline, in which the cells remained for two hours before neutron bombardment. The cells were then irradiated for one hour under a thermal neutron flux of 3×10^8 n/cm^2s (nominal power 5 kW), at the ENEA's (Ente per le Nuove Tecnologie, L'Energia e L'Ambiente, Rome, Italy) TAPIRO fast Reactor. The fast neutron flux at the center of the irradiation chamber (20 cm^3 cube) was negligible, while the γ average dose was 3.2 Gy/h.^(20) Two hours later, the cells were detached from the plates, and cell survival was measured by cell counting and by the colorimetric MTT assay. The standard deviation of cell counting results on the four culture series was within 10%.
To verify if the 140 μg/ml of Gd retained by glioblastoma cells in the two- to four-hour washout time was still available as an efficient tumoricidal agent for NCT, the cultures were irradiated for one hour with thermal neutrons.
The data of FIG. 5 were obtained by direct living cell count and very similar results were obtained by the use of an MTT assay. As presented in FIG. 5, the control cultures (no Gd) were also affected by neutron irradiation, causing 20% of the cells to die. […] The serum-free environment insures that the DNA-repair cellular mechanism is slowed down, resulting (in principle) in decreased survival of the cells in which the Gd neutron capture reaction induced DNA damage. The 20% cell killing observed in cells not exposed to Gd provides an evaluation of the extent of this phenomenon.

Data set [2] shares this test system. Kind of data set: ICP-MS Gd release/retention after Gd-DTPA wash-out. The note with it: 10 mg/ml 72 hours.
Data set [3] has the same test system. Kind of data set: MEPHISTO x-ray spectromicroscopy, Gd in nucleus vs. cytoplasm. The class given is cell-based. The note with it: 10 mg/ml. The method, then:
1) For spectromicroscopy experiments, two series of cell cultures from different passages were prepared, in which 5×10^4 cells/cm^2 were plated in 35 mm plastic Petri dishes, each containing 4 to 5 gold-plated stainless steel substrates (5 mm diameter). The Gd exposure concentration was 10 mg/ml and the exposure times were 0 to 72 hours. At the end of the exposure periods, all dishes were carefully washed three times with phosphate buffered saline (PBS) to remove all unbound Gd-DTPA, fixed in 4% paraformaldheyde in PBS for 20 minutes, and then washed in Milii Q water. The samples were then air-dried at room temperature and etched by exposure to UV light from a low-pressure mercury lamp in the presence of ozone. UV/O3 etching selectively removes carbon and nitrogen from the cells without architectural distortion, thereby preserving the micro localization of all other elements.^(18,19) In the present study, etching was employed to reveal the local (i.e., nuclear) concentration of Gd which would otherwise not be detectable with x-ray absorption spectroscopy. The cell cultures were etched for 116 hours, at a distance of 5 mm from the UV lamp.
Microchemical analysis of the etched cell cultures was performed with the custom-built MEPHISTO (Microscope á Emission de PHotoélectrons par Illumination Synchrotronique de Type Onduleur) X-ray photoelectron emission microscope (X-PEEM), which uses an electron optics system (SpectroMicroTech, Orlando, Fla., USA) to form a magnified image of the photoelectrons emitted by a specimen under soft x-ray illumination. The image magnification is continuously variable up to 8000x, and the optimum lateral resolution is 20 nm^(15). The image pixel intensity (corresponding to total photoelectron yield, per unit area, per unit time) is recorded as a function of photon energy. […] The position and line-shape of spectral features provide element identification and chemical state information. Spectra can be acquired simultaneously from regions selected on the real time image of the sample surface, and the probed depth is on the order of 100 Å. For this work, the MEPHISTO X-PEEM was mounted on the HERMON beamline of the University of Wisconsin-Madison Synchrotron Radiation Center (Stoughton, Wis.).
MEPHISTO micrographs acquired at a specific photon energy were processed in Adobe Photoshop 5.0 software for Macintosh to enhance the contrast and add a scale bar. […]
A comparison of ICP-MS and MEPHISTO data, determines the calibration of the MEPHISTO analysis, and therefore quantitative information on the Gd concentration at the microscopic level. […] These factors were derived from the matching of MEPHISTO data from whole cells to the ICP-MS cell-bulk data, so that they quantitatively overlap. […]

Regarding `O=C([O-])CN(CCN(CC(=O)[O-])CC(=O)O)CCN(CC(=O)[O-])CC(=O)O.[Gd+3]` [Gd-DTPA, gadolinium diethylene triamine pentaacetic acid], in data set [1] (140 μg/ml Gd retained after two hours in physiological solution, 1 hour thermal neutrons), the “cell death after Gd exposure followed by thermal neutrons” value is given as 70%. In addition, in data set [1] (70% vs. 20% killing), the “cell inactivation by Gd plus thermal neutrons vs. thermal neutrons alone” value is 3.5 times. Further, the “cell death after neutron irradiation” value is “not sufficient to induce consistent cell death” in data set [1] (exposure 1 mg/ml Gd-DTPA 72 hours); “evident and reproducible cell death” in data set [1] (exposure 10 and 5 mg/ml Gd-DTPA 72 hours). Further, the “immediate loss of Gd from the cell bodies after wash-out” value in data set [2] (FIG. 4) is “about 80%”. Besides, the “intracellular retained Gd concentration” value in data set [2] (then two to four hours in physiological solution) worked out at 140 µg/mL. Further, the “Ratio: Gd nucleus/Gd cytoplasm” value in data set [3] (exposure time 6 hrs) is 1.6; in data set [3] (exposure time 24 hrs) it was 2.1; in data set [3] (exposure time 48 hrs) it was 1.0; in data set [3] (exposure time 72 hrs), 1.3.

For the origin of these results see US6770020B2 (priority 2001, dated 2004).
